# Laboratory results from patent US8889902B2, “Acetylsalicylic acid salts” (priority 2009, dated 2014).
# Several values for one entry are separate records, joined by “and”; a condition that tells them apart may be missing. Equal entries are not always repeated. Marks after values point to notes of the source that are not given here.
# Experiments:
# platelet aggregation = assay: Platelet aggregation in vitro, whole blood impedance aggregometry (Multiplate); type: cell-based, healthy donor
# Experimental: Platelet aggregation was studied using whole blood impedance aggregometry on Multiplate (Multiple Platelet Function Analyzer, Dynabyte Medical, Germany) (Toth O et al, Thromb Haemost 2006; 96:781-788. […] Blood samples for in vitro experiment were collected from healthy donor B. […] In the ex vivo experiment blood was collected into plastic tubes covered with hirudin (Dynabyte Medical, Germany) from narcotized rats that were treated for 3 previous days with test substances p.o. The measurements were performed according to modified Dynabyte Medical protocol. […] After 5 min incubation and stirring at 37° C., measurements were initiated by adding of the appropriate agonist solution (sourced from Dynabyte Medical, Germany): 1) adenosine diphosphate (ADP)-ADP-Test. ADP stimulates platelet activation by the ADP receptors (P2Y 12 and other). […] 3) ADP HS test (prostaglandin E1 in combination with ADP). […] Aggregation curves were recorded for 6 min. and analyzed using Dynabyte Medical software. We calculated the following parameters of platelet aggregation: […] It is affected by the total height of the aggregation curve as well as by its slope and is best suited to express the overall platelet activity.
# [1] = system: adjuvant arthritis induced by Freund's adjuvant; assay: Adjuvant arthritis: paw volume and ankle joint; type: in vivo, Wistar rats; conditions: for Prevention %, paw volume Day 14 / Prevention %, paw volume Day 28: vs AdA
# Text: Our experiments were scheduled to test the influence of MASA on the progress of adjuvant arthritis in comparison with MD and ASA. […] Each standard cage housed 7 rats with unlimited access to drinking water and granulated standard feed. […] All efforts were made to minimize animal suffering and to reduce the number of animals used. A modified standard procedure for inducting and evaluating the progress of chronic adjuvant arthritis was used (Bellavite P, Ortolani R, Conforti A, Immunology and Homeopathy. 3. Experimental Studies on Animal Models, Advance Access Publication 2.05, 2006, 171-186). […] The solutions of test substances were prepared ex tempore. […] Test solutions were introduced to animal p.o. by catheter into the stomach. […] The effects of test substances were evaluated using the following criteria: The oedema, i.e. the volume of hind paw was measured by oncometer. The percentage of prevention (inhibition of oedema) was calculated according to formula: P(%)=(Vc−Vt)/Vc×100, where Vc—paw volume in control group Vt—paw volume in test group P—Prevention in % (inhibition of oedema).
# rat ear skin temperature = assay: Ear skin temperature rise caused by NA, s.c. administration; type: in vivo, Wistar rats; conditions: 45 mg/kg s.c. alone
# Experimental: Male Wistar rats (280-330 g) were used. Animals were held in groups of 6 in climatized rooms at 22±1° C., relative humidity 60±5%, and 12/12-hour light/dark cycle with free access to drinking water and feed (R3—Lactamin AB, Sweden). For registration of changes in skin temperature of intact rats contactless temperature recording method was used (Papaliodis D et al, Br J Pharmacol 2008; 153:1382-1387). Temperature measurements were performed with a hand-held infrared thermometer (Model Proscan 510, TFA-Dostman). Animals were habituated to handling and to the infrared probe for 3 days before use. Temperature readings from the dorsal side of each ear were recorded without anaesthesia at beginning and during experiment. The ear temperature was measured every 5 min. for a period of up to 60 min. The animals were returned to their cages between measurements. NA, MD and MASA were dissolved in saline and pH was corrected immediately before usage. LA (MK 0524, Cayman Chemicals) was first dissolved in DMSO and then freshly diluted with 0.9% NaCl, on each day of the experiment. The rate of NA and LA combination was based on Summary of Product Characteristics for Tredaptive™ (nicotinic acid/laropiprant) 1000 mg/20 mg modified-release tablets.
# The influence of LA, MD or MASA alone on skin temperature was checked. Each investigated compound was introduced s.c. simultaneously with NA as LA+NA [0] or 30 min in advance to NA as LA+NA [30].
# [2] = system: WBC, CRP, CIC in adjuvant arthritis; assay: Adjuvant arthritis: WBC, CRP and CIC in blood; type: in vivo, Wistar rats
# Experimental: Our experiments were scheduled to test the influence of MASA on the progress of adjuvant arthritis in comparison with MD and ASA. Experiments were conducted on Wistar rats with starting body mass of 153-185 g. Rats were kept in climatized rooms at 22±1° C., relative humidity 60±5% and 12/12-hour light/darkness cycle. Each standard cage housed 7 rats with unlimited access to drinking water and granulated standard feed. All experiments were carried out in accordance with the European Community Council's Directive of 24 Nov. 1986 (86/609/EEC) relative to experimental animal care. All efforts were made to minimize animal suffering and to reduce the number of animals used.
# A modified standard procedure for inducting and evaluating the progress of chronic adjuvant arthritis was used (Bellavite P, Ortolani R, Conforti A, Immunology and Homeopathy. 3. Experimental Studies on Animal Models, Advance Access Publication 2.05, 2006, 171-186). Rats were injected into the hind foot pad 0.1 ml and intraperitonealy with 0.05 ml of complete Freund's adjuvant solution.
# Hematological indices were determined by standard methods on hematological analyzer ? PENTRA 120 ? , CRP was determined on ? INTEGRA 400+ ? . Levels of CIC in blood serum were determined spectrometrically, using […].
smiles,measurement,setting,value
"CC(=O)Oc1ccccc1C(=O)[O-].C[N+](C)(C)NCCC(=O)O [MASA, 3-(trimethylammonioamino)propanoate Acetylsalicylic Acid Addition Salt]",AUC,"platelet aggregation; AA induced, 10^−4",298 ± 25.3^3#&&$ AU*min and 298 ± 25.3^3aa& AU*min
same,Amax,"platelet aggregation; AA induced, 10^−4",66.1 ± 6.8^3#&&$ AU and 66.1 ± 6.8^3aa& AU
same,AUC,"platelet aggregation; AA induced, 10^−5",832 ± 54.1^1 AU*min
same,Amax,"platelet aggregation; AA induced, 10^−5",148.4 ± 5.7^1 AU
same,AUC,"platelet aggregation; ADP induced, 10^−4",798 ± 38.9^1 AU*min
same,Amax,"platelet aggregation; ADP induced, 10^−4",140.5 ± 7.2^1 AU
same,AUC,"platelet aggregation; ADP induced, 10^−5",828 ± 63.5 AU*min
same,Amax,"platelet aggregation; ADP induced, 10^−5",153.5 ± 8.8 AU
same,AUC,"platelet aggregation; PGE1 + ADP induced, 10^−4",533 ± 20.3^3$&&& AU*min
same,Amax,"platelet aggregation; PGE1 + ADP induced, 10^−4",87.7 ± 4.6^3$&&& AU
same,AUC,"platelet aggregation; PGE1 + ADP induced, 10^−5",595 ± 45.3^1 AU*min
same,Amax,"platelet aggregation; PGE1 + ADP induced, 10^−5",99.3 ± 4.8^2 AU
same,Dimensions of ankle joint on Day 14,[1]; 25 mg/kg daily p.o.,7.0 ± 0.14 mm
same,Dimensions of ankle joint on Day 28,[1]; 25 mg/kg daily p.o.,6.7 ± 0.15 mm
same,Paw volume on Day 14,[1]; 25 mg/kg daily p.o.,2.20 ± 0.21 mL
same,Paw volume on Day 28,[1]; 25 mg/kg daily p.o.,1.32 ± 0.12^#&&$ ml
same,"Prevention %, paw volume Day 14",[1]; 25 mg/kg daily p.o.,9%
same,"Prevention %, paw volume Day 28",[1]; 25 mg/kg daily p.o.,41%
same,Dimensions of ankle joint on Day 14,[1]; 100 mg/kg daily p.o.,7.0 ± 0.13 mm
same,Dimensions of ankle joint on Day 28,[1]; 100 mg/kg daily p.o.,6.6 ± 0.16^#@$ mm
same,Paw volume on Day 14,[1]; 100 mg/kg daily p.o.,2.07 ± 0.17^& ml
same,Paw volume on Day 28,[1]; 100 mg/kg daily p.o.,1.22 ± 0.08^#&&&@$ ml
same,"Prevention %, paw volume Day 14",[1]; 100 mg/kg daily p.o.,15%
same,"Prevention %, paw volume Day 28",[1]; 100 mg/kg daily p.o.,45%
same,Dimensions of ankle joint on Day 14,[1]; 200 mg/kg daily p.o.,6.8 ± 0.10^#& mm
same,Dimensions of ankle joint on Day 28,[1]; 200 mg/kg daily p.o.,6.9 ± 0.11 mm
same,Paw volume on Day 14,[1]; 200 mg/kg daily p.o.,2.13 ± 0.11^& ml
same,Paw volume on Day 28,[1]; 200 mg/kg daily p.o.,1.7 ± 0.09^#&@ ml
same,"Prevention %, paw volume Day 14",[1]; 200 mg/kg daily p.o.,12%
same,"Prevention %, paw volume Day 28",[1]; 200 mg/kg daily p.o.,24%
same,Maximum temperature,rat ear skin temperature,29.2 ± 0.38^$$$ ° C.
same,"CIC units, Day 14",[2]; 25 mg/kg daily p.o.,12.6 ± 0.68 units
same,"CIC units, Day 28",[2]; 25 mg/kg daily p.o.,11.8 ± 1.53 units
same,"CRP, Day 14",[2]; 25 mg/kg daily p.o.,0.29 ± 0.02 mg/L
same,"CRP, Day 28",[2]; 25 mg/kg daily p.o.,0.15 ± 0.02^##& mg/l
same,"Leucocytes (WBC), Day 14",[2]; 25 mg/kg daily p.o.,14.72 ± 1.63^# 10^3/mm^3
same,"Leucocytes (WBC), Day 28",[2]; 25 mg/kg daily p.o.,16.77 ± 1.78 10^3/mm^3
same,"CIC units, Day 14",[2]; 100 mg/kg daily p.o.,20.8 ± 2.99 units
same,"CIC units, Day 28",[2]; 100 mg/kg daily p.o.,5.8 ± 0.74^##&@@$ units
same,"CRP, Day 14",[2]; 100 mg/kg daily p.o.,0.29 ± 0.02 mg/L
same,"CRP, Day 28",[2]; 100 mg/kg daily p.o.,0.16 ± 0.01^##& mg/l
same,"Leucocytes (WBC), Day 14",[2]; 100 mg/kg daily p.o.,14.13 ± 0.53^## 10^3/mm^3
same,"Leucocytes (WBC), Day 28",[2]; 100 mg/kg daily p.o.,15.52 ± 0.57^## 10^3/mm^3
same,"CIC units, Day 14",[2]; 200 mg/kg daily p.o.,21.6 ± 3.26 units
same,"CIC units, Day 28",[2]; 200 mg/kg daily p.o.,6.2 ± 1.02^##@ units
same,"CRP, Day 14",[2]; 200 mg/kg daily p.o.,0.25 ± 0.01*^#@ mg/l
same,"CRP, Day 28",[2]; 200 mg/kg daily p.o.,0.19 ± 0.01 mg/L
same,"Leucocytes (WBC), Day 14",[2]; 200 mg/kg daily p.o.,15.42 ± 1.40^# 10^3/mm^3
same,"Leucocytes (WBC), Day 28",[2]; 200 mg/kg daily p.o.,14.35 ± 0.84^## 10^3/mm^3
"CC(=O)Oc1ccccc1C(=O)O [ASA, acetylsalicylic acid]",AUC,"platelet aggregation; AA induced, 10^−4",450 ± 24.8^2#@ AU*min and 450 ± 24.8^3a@ AU*min
same,Amax,"platelet aggregation; AA induced, 10^−4",103.1 ± 5.9^2#@ AU and 103.1 ± 5.9^2a@ AU
same,AUC,"platelet aggregation; ADP induced, 10^−4",883 ± 50.3 AU*min
same,Amax,"platelet aggregation; ADP induced, 10^−4",151.7 ± 9.3 AU
same,AUC,"platelet aggregation; PGE1 + ADP induced, 10^−4",961 ± 35.0 AU*min
same,Amax,"platelet aggregation; PGE1 + ADP induced, 10^−4",162.5 ± 8.7 AU
same,Dimensions of ankle joint on Day 14,[1]; 10 mg/kg daily p.o.,7.2 ± 0.12 mm
same,Dimensions of ankle joint on Day 28,[1]; 10 mg/kg daily p.o.,6.8 ± 0.14 mm
same,Paw volume on Day 14,[1]; 10 mg/kg daily p.o.,2.53 ± 0.10 mL
same,Paw volume on Day 28,[1]; 10 mg/kg daily p.o.,2.08 ± 0.12 mL
same,"Prevention %, paw volume Day 14",[1]; 10 mg/kg daily p.o.,−7%
same,"Prevention %, paw volume Day 28",[1]; 10 mg/kg daily p.o.,7%
same,Dimensions of ankle joint on Day 14,[1]; 100 mg/kg daily p.o.,6.9 ± 0.15 mm
same,Dimensions of ankle joint on Day 28,[1]; 100 mg/kg daily p.o.,7.1 ± 0.16 mm
same,Paw volume on Day 14,[1]; 100 mg/kg daily p.o.,2.35 ± 0.14 mL
same,Paw volume on Day 28,[1]; 100 mg/kg daily p.o.,1.52 ± 0.07 mL
same,"Prevention %, paw volume Day 14",[1]; 100 mg/kg daily p.o.,3%
same,"Prevention %, paw volume Day 28",[1]; 100 mg/kg daily p.o.,32%
same,"CIC units, Day 14",[2]; 10 mg/kg daily p.o.,10.8 ± 0.74 units
same,"CIC units, Day 28",[2]; 10 mg/kg daily p.o.,8.2 ± 0.53 units
same,"CRP, Day 14",[2]; 10 mg/kg daily p.o.,0.26 ± 0.01 mg/L
same,"CRP, Day 28",[2]; 10 mg/kg daily p.o.,0.19 ± 0.01 mg/L
same,"CIC units, Day 14",[2]; 100 mg/kg daily p.o.,15.0 ± 1.23 units
same,"CIC units, Day 28",[2]; 100 mg/kg daily p.o.,14.4 ± 1.66 units
same,"CRP, Day 14",[2]; 100 mg/kg daily p.o.,0.29 ± 0.01 mg/L
same,"CRP, Day 28",[2]; 100 mg/kg daily p.o.,0.18 ± 0.02 mg/L
